# Results from patent US11040958B2, “Triazole antimicrobial derivative, pharmaceutical composition and use thereof” (priority 2017, dated 2021).
# Test system: Candida albicans ATCC10231
# Test: Systemic fungal infection in mice, administration by gavage, survival
# Type: in vivo
# Conditions: ICR mice, 5 mg/kg (calculated as voriconazole) once daily for 5 days
# How it was run: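 Male ICR mice (18-22 g) infected via tail vein with C. albicans ATCC10231 at 5*10^6/ml, 0.1 ml/10 g. Starting 2 h post-infection, 5 mg/kg (as voriconazole) given by gavage once daily for 5 days; saline for model group. Groups of 10; survival time recorded over 7 days.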
smiles,measurement,setting,value
CC(OC(=O)SCCO)[n+]1cnn(C[C@](O)(c2ccc(F)cc2F)[C@@H](C)c2ncncc2F)c1 (stereo partly shown) [Compound 16037],"survival rate of mice, day 1",day 1,100%
same,"survival rate of mice, day 2",day 2,100%
same,"survival rate of mice, day 3",day 3,100%
same,"survival rate of mice, day 4",day 4,100%
same,"survival rate of mice, day 5",day 5,90%
same,"survival rate of mice, day 6",day 6,80%
same,"survival rate of mice, day 7",day 7,80%
